Results published in patent US20220031800A1, “PEPTIDES FOR TREATING NON-EXUDATIVE MACULAR DEGENERATION AND OTHER DISORDERS OF THE EYE” (Allegro Pharmaceuticals, LLC, priority 2019, published 2022).
Square brackets hold non-standard residues; d marks the D form. Peptide text beside a SMILES is read from it. Cya = N[C@@H](CS(=O)(=O)O)C(=O)O

Experiments:
[1] = test system: study eye of subjects with intermediate non-exudative AMD; test: Lanthony D-15 color vision test (Total Error Score Hue Style) in Dry AMD study; format: in vivo, human; parameters: Color vision Total Error Score Hue Style, mean / Color vision Total Error Score Hue Style, median / Color vision Total Error Score Hue Style change, median: scale not given here
Procedure: Numerous study assessments were conducted at various time points throughout the study. Included among these study assessments were; refractive eye examinations, determinations of BCVA AND low-luminance BCVA, Lanthony D-15 color vision test, measurement of intraocular pressure (IOP), Indirect ophthalmoscopy/dilated fundus examinations and spectral-domain optical coherence tomography (SD-OCT). Also, blood and saliva samples were obtained from each subject for genetic analysis. The above-listed study assessments were performed at the time points indicated in Table 1, below: The results of color vision testing of the study subjects are summarized in Table 5, below.

[2] = test system: study eye of subjects with intermediate non-exudative AMD; test: Microperimetry (mean retinal sensitivity, number of loci summed); format: in vivo, human
Description: Table 9, below, summarizes number of loci with reduced retinal sensitivity summed across assessments using a 20-dB threshold, an 11-dB threshold, and by measuring absolute scotoma.

[3] = test system: human RPE cells (ARPE-19); test: Trypan blue viability of human RPE cells (ARPE-19) exposed to hydrogen peroxide; format: cell-based; settings: 1.0 mg/mL risuteganib alone
Procedure: Purpose: Investigate cytoprotective properties of risuteganib in human RPE cells (ARPE-19) exposed to hydrogen peroxide, which is a reactive oxygen species that can induce cell death at elevated levels. Methods: ARPE-19 cells were cultured in laminin-coated trans-wells for 2 weeks to induce differentiation. Cells were then exposed to the experimental conditions: […]

[4] = test system: human retinal Müller cells (MIO-M1); test: Reactive oxygen species level in human Müller cells (MIO-M1); format: cell-based; settings: 1× concentration (clinical dose), 24 hours
Procedure: Purpose: To determine the effects of risuteganib and anti-VEGF drugs on reactive oxygen species (ROS) levels in cultured human retinal Müller cells (MIO-M1). Elevated ROS levels can disrupt normal cellular functions, leading to reduced cell health and possible cell death.
Methods: The immortalized human retinal Müller cell line (MIO-M1) was obtained from the Department of Cell Biology of the University College, London. Cells were cultured in Dulbecco's Modified Eagle's Medium (DMEM) and plated in 24-well plates for 24 hours before treatment with 1× concentration of 1 mg/50 μL ALG-1001, ranibizumab, bevacizumab, or aflibercept. Dosage was based on clinical dose of each compound. The experiments were repeated 3 times with 6 replicates each. After 24 hours drug treatment, ROS level was measured using the fluorescent dye 2′,7′-dichlorodihydrofluorescein diacetate. The signals were read using the Biotek Synergy HT plate reader with EX filter in 482 nm and EM filter in 520 nm. Results were normalized to untreated control as 100%. Statistical analysis was performed in GraphPad Prism software program.

[5] = test system: human retinal Müller cells (MIO-M1); test: Mitochondrial membrane potential (JC-1) in human Müller cells (MIO-M1); format: cell-based; settings: 1× of 1 mg/50 μL, 24 hours; normalized to untreated control as 100%
Procedure: Purpose: To determine the effects of risuteganib on the mitochondrial membrane potential (ΔΨm) in cultured human retinal Müller cells (MIO-M1). Loss of ΔΨm is a marker for early cell death.
Methods: The immortalized human retinal Müller cell line (MIO-M1) was obtained from the Department of Cell Biology of the University College, London. Cells were cultured in Dulbecco's Modified Eagle's Medium (DMEM) and plated in 24-well plates for 24 hours before treatment with 1× concentration of 1 mg/50 μL risuteganib, ranibizumab, bevacizumab, or aflibercept. Dosage was based on clinical dose of each compound. The experiments were repeated 3 times with 6 replicates each. After 24 hours drug treatment, the ΔΨm was measured using the JC-1 kit, a cationic dye that fluoresces red within the mitochondria of healthy, live cells. In the stressed or apoptotic cells, the mitochondrial membrane potential collapses and the cationic dye fluoresces green. First, cells were rinsed with fresh media and then incubated with the JC-1 reagent for 15 minutes at 37 degrees C. The dyes were then removed, and phosphate buffered saline was added to each well. The Red fluorescence (live cells) was read at EX 550 nm and EM 600 nm. The Green fluorescence (apoptotic cells) was read at EX 483 nm and EM 535 nm. The changes in ΔΨm were calculated by the ratio of red to green fluorescence. […]

primary human RPE cells = test: ROS level (CM-H2DCFDA) in primary human RPE cells exposed to hydroquinone; format: cell-based; settings: 0.4 mM risuteganib co-treatment with HQ 125-180 uM
Procedure: Purpose: To determine if risuteganib protects against hydroquinone (HQ)-mediated cell injury, elevated ROS level and reduced mitochondrial membrane potential (Δψm) in cultured human RPE cells. Elevated ROS levels increase oxidative stress in the cells, leading to reduced cell health and cell death. Loss of ΔΨm is a marker for early cell death. Methods: Primary human RPE cells were seeded on collagen-coated 96-well plates in triplicates at 8K, 10K and […] cells/well, respectively. Cells reached 80% to 100% confluence 24 hours after plating, and confluent cells were then grown for an additional 4 or 5 days until growth was density arrested. On day 6 after plating, cells in the plate upper half were loaded with 20 μM CM-H2DCFDA (measures ROS level) and in the plate lower half with 10 μM JC-1 (measures Δψm) for 30 minutes at 37° C. […] For the ROS and Δψm assays, a fluorescence plate reader was used to quantify ROS production (490-nm excitation, 522-nm emission), and green monomer of JC-1 (490-nm excitation, 522-nm emission) and red JC-1 aggregate (535-nm excitation, 590-nm emission), respectively. […] The WST reagent was quantified with a plate reader at 440 nm and a reference wavelength at 690 nm. Data were normalized to untreated control as 100% and were expressed as the mean±SD.

[6] = Week 12, Group 2 (1 mg IVT day 1 + wk 16)
[7] = Week 32, Group 1 crossover (sham day 1, 1 mg IVT wk 16)
[8] = Week 32, Group 2 (1 mg IVT day 1 + wk 16)
[9] = Week 32 change, Group 1 crossover (sham day 1, 1 mg IVT wk 16)

C[C@@H](O)[C@H](NC(=O)[C@H](CS(=O)(=O)O)NC(=O)CNC(=O)[C@H](CCCNC(=N)N)NC(=O)CN)C(=O)N1CCC[C@H]1C(=O)O [risuteganib, Glycyl-L-arginylglycyl-3-sulfo-L-alanyl-L-threonyl-L-proline] (H-GRG[Cya]TP-OH)
Color vision Total Error Score Hue Style, mean [1, 6]: 43.38 | Color vision Total Error Score Hue Style, median [1, 6]: 39.67 | Color vision Total Error Score Hue Style change, median ([1]; Week 12 change from screening, Group 2 (1 mg IVT day 1 + wk 16)): 2.67 | Color vision Total Error Score Hue Style change, mean ([1]; Week 12 change from screening, Group 2 (1 mg IVT day 1 + wk 16), increase = worsening): 2.41 | Color vision Total Error Score Hue Style, mean [1, 7]: 48.76 | Color vision Total Error Score Hue Style, median [1, 7]: 42.00 | Color vision Total Error Score Hue Style, mean [1, 8]: 39.88 | Color vision Total Error Score Hue Style, median [1, 8]: 24.09 | Color vision Total Error Score Hue Style change, median ([1]; Week 32 change from screening, Group 2 (1 mg IVT day 1 + wk 16)): −3.17 | Color vision Total Error Score Hue Style change, median [1, 9]: 1.34 | Decrease (improvement) in color vision total error score ([1]; risuteganib responders at Week 32 (FIG. 3)): 13.03 | Microperimetry number of loci summed change, median ([2]; Week 12 change, Group 2 (1 mg IVT day 1 + wk 16)): 4.0 | Microperimetry number of loci summed change, mean ([2]; Week 12 change, Group 2 (1 mg IVT day 1 + wk 16), increase = worsening): 6.1 | Microperimetry number of loci summed (reduced sensitivity), mean [2, 8]: 80.7 | Microperimetry number of loci summed change, median [2, 9]: −1.0 | Microperimetry number of loci summed change, median ([2]; Week 32 change, Group 2 (1 mg IVT day 1 + wk 16)): −3.0 | Decrease (improvement) in number of summed loci with reduced retinal sensitivity ([2]; risuteganib responders at Week 32 (FIG. 7)): 17.75 | Change in cell viability, treatment alone [3]: did not induce detectable change in cell viability | Change in ROS level compared to untreated control [4]: −19% | Mitochondrial membrane potential (ΔΨm, red/green JC-1 ratio) [5]: 109.3±4.91 | Reduction of HQ-induced ROS production (primary human RPE cells): 61%
